pIC50, pKi: −log10 of the molar value. Where two headings read alike, the source gives them in different places.
Columns and labels:
[1] = target: T1, phosphorylated VEGF-R2Δ50 (Homo sapiens, UniProt P35968, DEL940-989/E990V); assay: VEGF-R2 ELISA assay; assay type: biochemical; conditions: for pKi: * determined with ELISA assay, read-out: FLVK-P Ki; for FLVK-P % inhibition @ 300*: at 300 (head μM)
T1 construct: VEGF-R2Δ50 contains residues 806-939 and 990-1171; made in house; host or cells: baculovirus/insect cells
T1 sequence (P35968 with tags, fused parts or gaps DEL940-989/E990V limits assumed): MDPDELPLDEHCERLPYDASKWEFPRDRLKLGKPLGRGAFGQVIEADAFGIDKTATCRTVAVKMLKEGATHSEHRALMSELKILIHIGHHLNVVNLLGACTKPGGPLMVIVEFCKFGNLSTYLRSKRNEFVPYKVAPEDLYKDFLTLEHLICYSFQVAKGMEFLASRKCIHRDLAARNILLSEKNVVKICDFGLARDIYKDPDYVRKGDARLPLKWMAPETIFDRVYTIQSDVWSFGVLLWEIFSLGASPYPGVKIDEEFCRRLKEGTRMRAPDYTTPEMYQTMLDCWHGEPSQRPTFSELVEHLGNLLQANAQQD
Excerpt: VEGF-R2 Construct for Assay: This construct determines the ability of a test compound to inhibit tyrosine kinase activity. A construct (VEGF-R2Δ50) of the cytosolic domain of human vascular endothelial growth factor receptor 2 (VEGF-R2) lacking the 50 central residues of the 68 residues of the kinase insert domain was expressed in a baculovirus/insect cell system. Of the 1356 residues of full-length VEGF-R2, VEGF-R2Δ50 contains residues 806-939 and 990-1171, and also one point mutation (E990V) within the kinase insert domain relative to wild-type VEGF-R2. Autophosphorylation of the purified construct was performed by incubation of the enzyme at a concentration of 4 μM in the presence of 3 mM ATP and 40 mM MgCl2 in 100 mM Hepes, pH 7.5, containing 5% glycerol and 5 mM DTT, at 4° C. for 2 h. […] See Parast et al., Biochemistry, 37, 16788-16801 (1998).
Formation of phosphogastrin was monitored using biotinylated gastrin peptide (1-17) as substrate. Biotinylated phosphogastrin was immobilized using streptavidin coated 96-well microtiter plates followed by detection using anti-phosphotyrosine-antibody conjugated to horseradish peroxidase. The activity of horseradish peroxidase was monitored using 2,2′-azino-di-[3-ethylbenzathiazoline sulfonate(6)]diammonium salt (ABTS). Typical assay solutions contained: 2 μM biotinylated gastrin peptide; 5 mM DTT; 20 μM ATP; 26 mM MgCl2; and 2 mM MnCl2 in 200 mM Hepes, pH 7.5. The assay was initiated with 0.8 nM of phosphorylated VEGF-R2Δ50. Horseradish peroxidase activity was assayed using ABTS, 10 mM. The horseradish peroxidase reaction was quenched by addition of acid (H2SO4), followed by absorbance reading at 405 nm. Ki values were determined by measuring enzyme activity in the presence of varying concentrations of test compounds. The data were analyzed using Enzyme Kinetic and Kaleidagraph software.

[2] = target: CDK2/Cyclin A complex (Homo sapiens, UniProt P24941); assay: CDK2/Cyclin A assay; assay type: biochemical; conditions: Table 2
Outline: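 Radiometric assay: 150 nM CDK2/cyclin A (insect-cell CDK2, truncated cyclin A) phosphorylates His-tagged Rb fragment (residues 386-928) with 25 μM ATP plus [32P]ATP, pH 7.4 HEPES, 2% DMSO, 30 °C for 20 min. Filter-captured product counted by phosphorimager; apparent Ki from competitive or tight-binding inhibition fits.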

[3] = target: T2, CDK4/Cyclin D3 complex (Homo sapiens, UniProt P11802); assay: CDK4/Cyclin D assay; assay type: biochemical; conditions: Table 2; for inhibition at 100 µM: at 100 (printed 100 or 100 μM)
T2 construct: made in house; host or cells: insect cells co-infected with baculovirus vectors
T2 sequence (P11802 whole entry): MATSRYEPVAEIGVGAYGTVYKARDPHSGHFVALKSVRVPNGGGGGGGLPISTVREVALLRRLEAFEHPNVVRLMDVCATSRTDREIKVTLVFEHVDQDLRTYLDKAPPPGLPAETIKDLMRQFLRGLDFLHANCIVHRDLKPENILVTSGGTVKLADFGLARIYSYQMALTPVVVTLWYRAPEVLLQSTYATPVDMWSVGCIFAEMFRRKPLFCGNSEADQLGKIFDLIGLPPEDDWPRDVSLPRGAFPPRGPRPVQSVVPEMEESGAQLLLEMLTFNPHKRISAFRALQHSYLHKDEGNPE
T2 sequence (P30281 whole entry partner): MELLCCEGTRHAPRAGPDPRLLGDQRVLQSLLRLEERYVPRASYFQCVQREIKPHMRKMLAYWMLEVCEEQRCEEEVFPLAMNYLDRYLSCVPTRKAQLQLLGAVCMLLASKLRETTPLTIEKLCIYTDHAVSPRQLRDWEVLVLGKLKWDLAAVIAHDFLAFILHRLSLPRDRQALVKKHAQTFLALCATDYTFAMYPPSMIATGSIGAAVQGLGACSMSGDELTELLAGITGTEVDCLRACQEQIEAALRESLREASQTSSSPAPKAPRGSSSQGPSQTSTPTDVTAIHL
Outline: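 Insect-cell-expressed CDK4/cyclin D3 (50 nM) phosphorylating His-tagged Rb fragment (residues 386-928) with 25 μM [^32P]ATP in HEPES pH 7.4, MgCl2, 2% DMSO; 20 min at 30 °C, EDTA stop. Filter-captured 32P by phosphorimager; apparent Ki from competitive or tight-binding inhibition fits.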

[4] = target: T3, CHK1 (Homo sapiens, UniProt O14757); assay: CHK1 high-throughput screening; assay type: biochemical; conditions: read-out: % inhibition @ 20 μM, Table 4, repeated entries per example
T3 sequence (O14757 1-476): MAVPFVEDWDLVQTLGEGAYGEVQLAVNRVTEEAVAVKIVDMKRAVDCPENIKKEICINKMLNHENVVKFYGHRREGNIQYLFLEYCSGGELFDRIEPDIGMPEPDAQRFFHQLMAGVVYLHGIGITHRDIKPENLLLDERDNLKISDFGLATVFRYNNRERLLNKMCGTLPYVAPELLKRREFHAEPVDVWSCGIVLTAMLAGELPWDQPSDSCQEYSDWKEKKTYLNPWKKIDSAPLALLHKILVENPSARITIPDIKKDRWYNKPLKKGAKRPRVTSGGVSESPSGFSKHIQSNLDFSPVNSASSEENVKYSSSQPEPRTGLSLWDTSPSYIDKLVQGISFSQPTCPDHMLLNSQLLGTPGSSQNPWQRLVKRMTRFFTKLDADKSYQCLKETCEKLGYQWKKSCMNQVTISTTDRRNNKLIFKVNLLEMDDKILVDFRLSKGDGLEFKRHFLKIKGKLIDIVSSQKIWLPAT

[5] = tested on: lung cancer cells (line MV522); assay: Cancer cell proliferation (MV522) assay; assay type: cell-based; conditions: MV522, Table 1
[6] = tested on: human umbilical vein endothelial cells (HUVEC); assay: HUVEC proliferation assay; assay type: cell-based; conditions: Homo sapiens, HUVEC, Table 1
Outline: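 Readout was MTT dye reduction (A595) after 72 h of stimulation with VEGF at 6 ng/ml final. Compound, in 0.1% DMSO final, was added 1 h before VEGF to HUVEC starved 24 h in 1% FBS. % inhibition was scaled between VEGF-alone and unstimulated wells; IC50 was fitted from triplicate dose curves.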

[7] = target: T4, FGF-R1 (Homo sapiens, UniProt P11362, C488A/C584S/L457V); assay: FGF-R spectrophotometric assay; assay type: biochemical; conditions: Table 2
T4 construct: starting from the endogenous methionine residue 456 to glutamate 766; made in house; host or cells: baculovirus vector expression system
T4 sequence (P11362 456-766 L457V/C488A/C584S): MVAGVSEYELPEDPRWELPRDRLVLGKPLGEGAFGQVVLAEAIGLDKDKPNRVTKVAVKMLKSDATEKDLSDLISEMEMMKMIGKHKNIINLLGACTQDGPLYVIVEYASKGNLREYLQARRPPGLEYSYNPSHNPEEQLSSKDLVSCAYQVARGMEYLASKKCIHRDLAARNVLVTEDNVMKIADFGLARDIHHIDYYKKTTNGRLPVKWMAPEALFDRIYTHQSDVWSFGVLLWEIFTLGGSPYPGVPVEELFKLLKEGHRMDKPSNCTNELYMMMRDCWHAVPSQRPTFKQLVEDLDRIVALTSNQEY
Protocol: FGF-R1 Construct for Assay: The intracellular kinase domain of human FGF-R1 was expressed using the baculovirus vector expression system starting from the endogenous methionine residue 456 to glutamate 766, according to the residue numbering system of Mohammadi et al., Mol. Cell. Biol., 16, 977-989 (1996). In addition, the construct also has the following 3 amino acid substitutions: L457V, C488A, and C584S.
The spectrophotometric assay was carried out as described above for VEGF-R2, except for the following changes in concentration: FGF-R=50 nM, ATP=2 mM, and poly(E4Y1)=15 mM.

[8] = target: T5, phosphorylated VEGF-R2Δ50 (FLVK-P) (Homo sapiens, UniProt P35968, DEL940-989/E990V); assay: VEGF-R2 coupled spectrophotometric (FLVK-P) assay; assay type: biochemical; conditions: Table 2; spectrophotometric assay
T5 construct: VEGF-R2Δ50 contains residues 806-939 and 990-1171; made in house; host or cells: baculovirus/insect cells
T5 sequence (P35968 with tags, fused parts or gaps DEL940-989/E990V limits assumed): as the sequence (P35968 with tags, fused parts or gaps DEL940-989/E990V limits assumed) above
Outline: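 Baculovirus-expressed human VEGF-R2Δ50 (residues 806-939/990-1171, E990V) was autophosphorylated with 3 mM ATP, 40 mM MgCl2 for 2 h at 4° C. ADP formation was coupled via PK/LDH to NADH oxidation, read at 340 nm, with 5.1 mM poly(E4Y1), 1 mM ATP, 25 mM MgCl2, Hepes pH 7.5. Ki came from activity across compound concentrations.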

[9] = target: T6, unphosphorylated VEGF-R2Δ50 (FLVK) (Homo sapiens, UniProt P35968, DEL940-989/E990V); assay: VEGF-R2 coupled spectrophotometric assay, unphosphorylated enzyme (FLVK); assay type: biochemical; conditions: Table 1
T6 construct: VEGF-R2Δ50 contains residues 806-939 and 990-1171; made in house; host or cells: baculovirus/insect cells
T6 sequence (P35968 with tags, fused parts or gaps DEL940-989/E990V limits assumed): as above
Outline: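 Unphosphorylated VEGF-R2Δ50 (5 to 40 nM) with 20 mM poly(E4Y1), 3 mM ATP, 60 mM MgCl2, 2 mM MnCl2 in 200 mM Hepes pH 7.5. ADP production coupled via PK/LDH to NADH oxidation, read at 340 nm. Ki from activity at varying compound concentrations.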

Compound `Nc1nc(Nc2ccc(S(N)(=O)=O)cc2)sc1-c1nc(-c2ccc(O)cc2)cs1` [A(8), 4-[4′-Amino-4-(4-hydroxy-phenyl)-[2,5′]bithiazolyl-2′-ylamino]-benzenesulfonamide] has a pKi ([1]; Table 2) of 7.24, a pKi [2] of 6.10 and a pKi [3] of 6.38.
`Nc1nc(Nc2ccc(S(N)(=O)=O)cc2)sc1-c1nc(-c2cccc(C(=O)O)c2)cs1` [A(21), 3-[4′-Amino-2′-(4-sulfamoyl-phenylamino)-[2,5′]bithiazolyl-4-yl]-benzoic acid] gave a pKi ([1]; Table 2) of 5.06, an inhibition at 20 µM [4] of -7.2% and a pKi [2] of 5.09. The pKi [3] was 4.35.
Compound `Cc1ccc(-c2csc(-c3sc(Nc4ccc(S(N)(=O)=O)cc4)nc3N)n2)cc1` [A(24), 4-(4′-Amino-4-p-tolyl-[2,5′]bithiazolyl-2′-ylamino)-benzenesulfonamide] has a pKi ([1]; Table 2) of 5.26, an inhibition at 20 µM [4] of 13.3% and a pKi [2] of 5.47. The “CDK4 % inhibition @ 10” value ([3]; at 10 (head μM)) was 64% @.
`CN(C)c1ccc(Nc2nc(N)c(-c3nn[nH]n3)s2)cc1` [J(2), N-(4-Dimethylamino-phenyl)-5-(2H-tetrazol-5-yl)-thiazole-2,4-diamine] gave a pKi ([1]; Table 2) of 4.28 and an inhibition at 100 µM [3] of 29%.
With `COc1cc(Nc2nc(N)c(-c3nc(-c4cccc(NC(=O)c5cc6ccccc6o5)c4)cs3)s2)cc(OC)c1OC` [D(21), Benzofuran-2-carboxylic acid {3-[4′-amino-2′-(3,4,5-trimethoxy-phenylamino)-[2,5′]bithiazolyl-4-yl]-phenyl}-amide] the pKi ([1]; Table 1) was 7.22, the pIC50 [5] was < 5.00 and the pIC50 [6] was 6.70.
`Nc1nc(Nc2ccc(S(N)(=O)=O)cc2)sc1-c1nc(O)cs1` [H(1), 4-(4′-Amino-4-hydroxy-[2,5′]bithiazolyl-2′-ylamino)-benzenesulfonamide] showed a pKi ([1]; Table 2) of 5.44, a pKi [2] of 6.19 and a pKi [3] of 5.42.
With `Nc1nc(Nc2ccc(S(N)(=O)=O)cc2)sc1-c1nc(-c2cc(O)cc(OCc3ccccc3)c2)cs1` [A(61), 4-[4′-Amino-4-(3-benzyloxy-5-hydroxy-phenyl)-[2,5]bithiazolyl-2′-ylamino]-benzenesulfonamide] the melting point was 185 to 187 °C (dec.) and the pKi [2] was 5.57.
`CN(C)c1ccc(Nc2nc(N)c(-c3nc(O)c(-c4ccccc4O)s3)s2)cc1` [H(3), 4′-Amino-2′-(4-dimethylamino-phenylamino)-5-(2-hydroxy-phenyl)-[2,5′]bithiazoly-4-ol] showed a pKi ([1]; Table 2) of 5.21, a pKi [2] of 5.06 and a pKi [3] of 5.77.
For `COc1cc(Nc2nc(N)c(-c3nc(-c4cccc(NC(=O)Oc5ccccc5)c4)cs3)s2)cc(OC)c1OC` [D(4), {3-[4′-Amino-2′-(3,4,5-trimethoxy-phenylamino)-[2,5′]bithiazolyl-4-yl]-phenyl}-carbamic acid phenyl ester], the pKi ([1]; Table 1) was 8.12, the pIC50 [5] was < 5.00 and the pIC50 [6] was 6.62.
`COc1cc(Nc2nc(N)c(C3=NC(c4ccccc4)CO3)s2)cc(OC)c1OC` (centres unmarked) [I(6), S-5-(4-Phenyl-4,5-dihydro-oxazol-2-yl)-N^2-(3,4,5-trimethoxyl-phenyl)-thiazole-2,4-diamine] showed a pKi [7] of 4.66 and a pKi [8] of 7.00.
For `COc1cc(Nc2nc(N)c(C3=NC(CC(C)C)CO3)s2)cc(OC)c1OC` (centres unmarked) [I(3), S-5-(4-Isobutyl-4,5-dihydro-oxazol-2-yl)-N^2-(3,4,5-trimethoxyl-phenyl)-thiazole-2,4-diamine], the “FLVK-P % inhibition @ 300*” value ([1]; Table 2, ELISA assay) was 40% @ and the inhibition at 100 µM [3] was < 0%.
In the case of `Nc1nc(Nc2ccc3c(c2)OCCO3)sc1-c1ccccn1` [G(3), N^2-(2,3-Dihydro-benzo[1,4]dioxin-6-yl)-5-pyridin-2-yl-thiazole-2,4-diamine], the “FLVK-P % inhibition @ 20*” value ([1]; Table 2, ELISA assay, at 20 (head μM)) was 13% @ and the pKi [3] was 5.21.
With `Nc1nc(Nc2ccccc2)sc1-c1ccccn1` [G(2), N^2-Phenyl-5-pyridin-2-yl-thiazole-2,4-diamine] the “FLVK-P % inhibition @ 100*” value ([1]; Table 2, ELISA assay, at 100 (head μM)) was 18% @ and the pKi [3] was 5.24.
`Nc1nc(Nc2ccc(S(N)(=O)=O)cc2)sc1C1=NC(c2ccccc2)CO1` (centres unmarked) [I(5), S-4-[4-Amino-5-(4-phenyl-4,5-dihydro-oxazol-2-yl)-thiazol-2-ylamino]-benzenesulfonamide] showed a pKi ([1]; Table 2) of 6.11 and an inhibition at 100 µM [3] of 47%.
In the case of `COc1cc(Nc2nc(N)c(-c3nc(-c4cccc(NC(=O)c5ncc(C)s5)c4)no3)s2)cc(OC)c1OC` [D(51)], the pKi ([1]; Table 1) was 7.49, the pIC50 [5] was < 5.00 and the pKi [9] was 9.21. The pIC50 [6] was 7.40.
With `COc1cc(Nc2nc(N)c(-c3nn[nH]n3)s2)cc(OC)c1OC` [J(1), 5-(2H-Tetrazol-5-yl-)-N-(3,4,5-trimethoxyl)-thiazole-2,4-diamine] the pKi ([1]; Table 2) was 4.19 and the inhibition at 100 µM [3] was < 0%.
`COc1cc(Nc2nc(N)c(-c3ccccn3)s2)cc(OC)c1OC` [G(1), 5-Pyridin-2-yl-N^2-(3,4,5-trimethoxy-phenyl)-thiazole-2,4-diamine] showed a pKi ([1]; Table 2) of 4.24 and a pKi [3] of 4.30.
With `COc1ccc(Nc2nc(N)c(-c3ccccn3)s2)cc1OC` [G(4), N^2-(3,4-Dimethoxy-phenyl)-5-pyridin-2-yl-thiazole-2,4-diamine] the “FLVK-P % inhibition @ 300*” value ([1]; Table 2, ELISA assay) was 42% @ and the pKi [3] was 4.94.

Reference: patent US6620828B2, “Thiazole compounds and pharmaceutical compositions for inhibiting protein kinases and methods for their use” (Agouron Pharmaceuticals, Inc., priority 1999, dated 2003)
